The values that follow come from patent US9315505B2, “Heterocyclic compounds and uses thereof” (INTELLIKINE LLC, priority 2009, dated 2016).

Broadly, the IC50 is the concentration that inhibits the measured activity by half.

Where two headings read alike, the source gives them in different places.

For test [1], the system named is Balb/c splenic B cells. Nature of the test: B cell activation and proliferation assay (Alamar Blue). In kind it is cell-based. To be noted: Mus musculus. As to the method: The ability of one or more subject compounds to inhibit B cell activation and proliferation is determined according to standard procedures known in the art. For example, an in vitro cellular proliferation assay is established that measures the metabolic activity of live cells. The assay is performed in a 96 well microtiter plate using Alamar Blue reduction. Balb/c splenic B cells are purified over a Ficoll-Paque™ PLUS gradient followed by magnetic cell separation using a MACS B cell Isolation Kit (Miletenyi). Cells are plated in 90 ul at 50,000 cells/well in B Cell Media (RPMI+10% FBS+Penn/Strep+50 uM bME+5 mM HEPES). A compound disclosed herein is diluted in B Cell Media and added in a 10 ul volume. Plates are incubated for 30 min at 37 C and 5% CO2 (0.2% DMSO final concentration). A 50 ul B cell stimulation cocktail is then added containing either 10 ug/ml LPS or 5 ug/ml F(ab′)2 Donkey anti-mouse IgM plus 2 ng/ml recombinant mouse IL4 in B Cell Media. Plates are incubated for 72 hours at 37° C. and 5% CO2. A volume of 15 uL of Alamar Blue reagent is added to each well and plates are incubated for 5 hours at 37 C and 5% CO2. Alamar Blue fluoresce is read at 560Ex/590Em, and IC50 or EC50 values are calculated using GraphPad Prism 5.
On the technique in general: Alamar Blue is a resazurin reagent that responds to reducing activity.

The target in test [2] is T1, PI3K α (Homo sapiens, UniProt P42336).
T1 construct: purchased Upstate
T1 sequence (P42336 whole entry): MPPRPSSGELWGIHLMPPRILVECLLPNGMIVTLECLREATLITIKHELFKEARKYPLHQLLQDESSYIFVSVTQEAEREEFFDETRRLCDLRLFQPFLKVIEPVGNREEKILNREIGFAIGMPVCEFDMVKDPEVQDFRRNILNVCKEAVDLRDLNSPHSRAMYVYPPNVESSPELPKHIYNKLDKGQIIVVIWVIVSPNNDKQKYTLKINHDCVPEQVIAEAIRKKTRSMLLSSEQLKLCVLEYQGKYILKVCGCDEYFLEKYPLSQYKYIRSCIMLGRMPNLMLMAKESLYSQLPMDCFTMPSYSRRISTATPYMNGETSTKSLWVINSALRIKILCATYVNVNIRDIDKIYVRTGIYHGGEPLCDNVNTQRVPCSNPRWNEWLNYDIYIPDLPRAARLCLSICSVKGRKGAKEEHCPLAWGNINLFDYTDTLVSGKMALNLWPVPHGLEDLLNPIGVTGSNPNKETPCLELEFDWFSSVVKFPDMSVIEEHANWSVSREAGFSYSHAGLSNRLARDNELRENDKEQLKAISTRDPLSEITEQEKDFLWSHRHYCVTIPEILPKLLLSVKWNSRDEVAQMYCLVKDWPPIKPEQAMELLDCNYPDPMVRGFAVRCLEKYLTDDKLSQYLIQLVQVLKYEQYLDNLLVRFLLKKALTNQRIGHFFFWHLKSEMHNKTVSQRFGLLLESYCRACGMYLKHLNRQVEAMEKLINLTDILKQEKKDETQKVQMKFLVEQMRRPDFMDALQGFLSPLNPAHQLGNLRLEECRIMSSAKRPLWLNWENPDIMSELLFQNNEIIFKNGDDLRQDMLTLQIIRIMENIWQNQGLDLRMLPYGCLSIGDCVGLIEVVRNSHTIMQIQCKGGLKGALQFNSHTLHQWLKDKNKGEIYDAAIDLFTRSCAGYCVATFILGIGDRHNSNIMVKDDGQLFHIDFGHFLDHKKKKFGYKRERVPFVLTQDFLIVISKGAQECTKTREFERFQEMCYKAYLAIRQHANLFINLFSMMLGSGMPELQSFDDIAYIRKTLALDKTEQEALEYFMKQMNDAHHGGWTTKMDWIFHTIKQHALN
T1 sequence (P27986 whole entry partner): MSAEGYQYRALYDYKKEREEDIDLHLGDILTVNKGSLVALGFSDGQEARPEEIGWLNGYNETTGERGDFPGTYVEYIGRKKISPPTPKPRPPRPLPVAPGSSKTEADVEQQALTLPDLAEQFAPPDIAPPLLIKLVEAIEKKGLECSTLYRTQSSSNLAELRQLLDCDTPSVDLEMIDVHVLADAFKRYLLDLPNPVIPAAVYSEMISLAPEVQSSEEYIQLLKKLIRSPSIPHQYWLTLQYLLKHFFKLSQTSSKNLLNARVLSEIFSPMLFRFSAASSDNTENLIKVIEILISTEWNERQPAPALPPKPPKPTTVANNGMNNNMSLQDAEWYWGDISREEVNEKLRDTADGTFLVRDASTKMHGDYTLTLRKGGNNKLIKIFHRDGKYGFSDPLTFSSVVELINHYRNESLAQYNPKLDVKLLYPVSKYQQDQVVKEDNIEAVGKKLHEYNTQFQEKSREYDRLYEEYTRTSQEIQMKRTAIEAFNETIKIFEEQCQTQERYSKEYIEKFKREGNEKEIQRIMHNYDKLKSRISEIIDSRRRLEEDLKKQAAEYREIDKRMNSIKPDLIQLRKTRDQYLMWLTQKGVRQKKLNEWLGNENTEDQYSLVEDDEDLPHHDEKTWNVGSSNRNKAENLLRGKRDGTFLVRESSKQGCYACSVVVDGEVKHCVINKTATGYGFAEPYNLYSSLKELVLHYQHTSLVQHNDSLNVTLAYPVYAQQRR
Put plainly: In vitro IC50, PI3K α (p110α/p85α inhibition assay). In kind it is biochemical. As to the method: (§1) IC50 values are measured using either a standard TLC assay for lipid kinase activity (described below) or a high-throughput membrane capture assay. Kinase reactions are performed by preparing a reaction mixture containing kinase, inhibitor (2% DMSO final concentration), buffer (25 mM HEPES, pH 7.4, 10 mM MgCl2), and freshly sonicated phosphatidylinositol (100 μg/ml). Reactions are initiated by the addition of ATP containing 10 μCi of γ-32P-ATP to a final concentration 10 or 100 μM and allowed to proceed for 5 minutes at room temperature. For TLC analysis, reactions are then terminated by the addition of 105 μl 1N HCl followed by 160 μl CHCl3:MeOH (1:1). The biphasic mixture is vortexed, briefly centrifuged, and the organic phase is transferred to a new tube using a gel loading pipette tip precoated with CHCl3. This extract is spotted on TLC plates and developed for 3-4 hours in a 65:35 solution of n-propanol:1M acetic acid. The TLC plates are then dried, exposed to a phosphorimager screen (Storm, Amersham), and quantitated.
(§2) Other commercial kits or systems for assaying PI3-K activities are available. The commercially available kits or systems can be used to screen for inhibitors and/or agonists of PI3-Ks including but not limited to PI 3-Kinase α, β, δ, and γ. An exemplary system is PI 3-Kinase (human) HTRF™ Assay from Upstate. […] Briefly, the assay is a time resolved FRET assay that indirectly measures PIP3 product formed by the activity of a PI3-K. The kinase reaction is performed in a microtitre plate (e.g., a 384 well microtitre plate). The total reaction volume is approximately 20 ul per well. In the first step, each well receives 2 ul of test compound in 20% dimethylsulphoxide resulting in a 2% DMSO final concentration. Next, approximately 14.5 ul of a kinase/PIP2 mixture (diluted in 1× reaction buffer) is added per well for a final concentration of 0.25-0.3 ug/ml kinase and 10 uM PIP2. The plate is sealed and incubated for 15 minutes at room temperature. To start the reaction, 3.5 ul of ATP (diluted in 1× reaction buffer) is added per well for a final concentration of 10 uM ATP. The plate is sealed and incubated for 1 hour at room temperature. The reaction is stopped by adding 5 ul of Stop Solution per well and then 5 ul of Detection Mix is added per well. The plate is sealed, incubated for 1 hour at room temperature, and then read on an appropriate plate reader. Data is analyzed and IC50s are generated using GraphPad Prism 5.

Test [3] concerns the target T2, PI3K γ (Homo sapiens, UniProt P48736).
T2 construct: purchased Sigma
Put plainly: In vitro IC50, PI3K γ (p110γ inhibition assay). In kind it is biochemical. To be noted: in vitro kinase assay. As for the experimental part:
as §1, with “Class I PI3-Ks can be either purchased (p110α/p85α, p110β/p85α, p110δ/p85α from Upstate, and p110γ from Sigma) or expressed as previously described (Knight et al., 2004). IC50” for “IC50”, “quantitated. For each compound, kinase activity is measured at 10-12 inhibitor concentrations representing two-fold dilutions from the highest concentration tested (typically, 200 μM).” for “quantitated.”
as §2

The target of test [4] is T3, PI3K δ (Homo sapiens, UniProt O00329).
T3 construct: purchased Upstate
T3 sequence (O00329 whole entry): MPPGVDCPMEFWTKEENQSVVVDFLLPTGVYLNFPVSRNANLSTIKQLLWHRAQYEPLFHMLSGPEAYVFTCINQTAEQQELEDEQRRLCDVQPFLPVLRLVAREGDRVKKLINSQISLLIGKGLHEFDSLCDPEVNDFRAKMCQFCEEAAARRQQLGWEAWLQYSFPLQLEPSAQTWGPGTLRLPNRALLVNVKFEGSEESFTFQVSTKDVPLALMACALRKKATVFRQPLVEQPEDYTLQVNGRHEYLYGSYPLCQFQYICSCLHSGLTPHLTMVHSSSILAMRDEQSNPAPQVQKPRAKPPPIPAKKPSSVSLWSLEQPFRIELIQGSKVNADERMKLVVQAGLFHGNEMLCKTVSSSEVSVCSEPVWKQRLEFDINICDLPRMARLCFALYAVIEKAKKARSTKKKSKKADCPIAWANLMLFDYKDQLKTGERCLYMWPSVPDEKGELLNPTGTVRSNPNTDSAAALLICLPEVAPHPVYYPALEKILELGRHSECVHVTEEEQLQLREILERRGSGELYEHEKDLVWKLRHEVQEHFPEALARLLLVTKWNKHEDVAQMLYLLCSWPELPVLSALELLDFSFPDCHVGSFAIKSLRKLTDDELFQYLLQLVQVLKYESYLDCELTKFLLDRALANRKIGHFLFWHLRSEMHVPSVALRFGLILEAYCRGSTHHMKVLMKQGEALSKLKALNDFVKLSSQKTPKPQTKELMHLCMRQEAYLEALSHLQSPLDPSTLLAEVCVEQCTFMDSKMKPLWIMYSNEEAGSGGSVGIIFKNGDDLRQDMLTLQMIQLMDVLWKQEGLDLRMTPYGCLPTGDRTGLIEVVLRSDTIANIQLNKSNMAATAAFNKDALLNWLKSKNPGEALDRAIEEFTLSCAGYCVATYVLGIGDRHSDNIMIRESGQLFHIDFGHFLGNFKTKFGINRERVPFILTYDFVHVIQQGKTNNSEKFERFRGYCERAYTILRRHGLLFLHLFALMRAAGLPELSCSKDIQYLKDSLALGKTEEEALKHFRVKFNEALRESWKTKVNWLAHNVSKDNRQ
T3 sequence (P27986 whole entry partner): as the sequence (P27986 whole entry partner) above
Put plainly: In vitro IC50, PI3K δ (p110δ/p85α inhibition assay). In kind it is biochemical. As for the experimental part:
as §1, §2

Setting [5] is: read-out: B cell proliferation EC50.
[6] abbreviates: in vitro kinase assay, read-out: IC50(nM) PI3K α.
Setting [7] is: in vitro kinase assay, read-out: IC50(nM) PI3K δ.

T2 sequence (P48736 whole entry): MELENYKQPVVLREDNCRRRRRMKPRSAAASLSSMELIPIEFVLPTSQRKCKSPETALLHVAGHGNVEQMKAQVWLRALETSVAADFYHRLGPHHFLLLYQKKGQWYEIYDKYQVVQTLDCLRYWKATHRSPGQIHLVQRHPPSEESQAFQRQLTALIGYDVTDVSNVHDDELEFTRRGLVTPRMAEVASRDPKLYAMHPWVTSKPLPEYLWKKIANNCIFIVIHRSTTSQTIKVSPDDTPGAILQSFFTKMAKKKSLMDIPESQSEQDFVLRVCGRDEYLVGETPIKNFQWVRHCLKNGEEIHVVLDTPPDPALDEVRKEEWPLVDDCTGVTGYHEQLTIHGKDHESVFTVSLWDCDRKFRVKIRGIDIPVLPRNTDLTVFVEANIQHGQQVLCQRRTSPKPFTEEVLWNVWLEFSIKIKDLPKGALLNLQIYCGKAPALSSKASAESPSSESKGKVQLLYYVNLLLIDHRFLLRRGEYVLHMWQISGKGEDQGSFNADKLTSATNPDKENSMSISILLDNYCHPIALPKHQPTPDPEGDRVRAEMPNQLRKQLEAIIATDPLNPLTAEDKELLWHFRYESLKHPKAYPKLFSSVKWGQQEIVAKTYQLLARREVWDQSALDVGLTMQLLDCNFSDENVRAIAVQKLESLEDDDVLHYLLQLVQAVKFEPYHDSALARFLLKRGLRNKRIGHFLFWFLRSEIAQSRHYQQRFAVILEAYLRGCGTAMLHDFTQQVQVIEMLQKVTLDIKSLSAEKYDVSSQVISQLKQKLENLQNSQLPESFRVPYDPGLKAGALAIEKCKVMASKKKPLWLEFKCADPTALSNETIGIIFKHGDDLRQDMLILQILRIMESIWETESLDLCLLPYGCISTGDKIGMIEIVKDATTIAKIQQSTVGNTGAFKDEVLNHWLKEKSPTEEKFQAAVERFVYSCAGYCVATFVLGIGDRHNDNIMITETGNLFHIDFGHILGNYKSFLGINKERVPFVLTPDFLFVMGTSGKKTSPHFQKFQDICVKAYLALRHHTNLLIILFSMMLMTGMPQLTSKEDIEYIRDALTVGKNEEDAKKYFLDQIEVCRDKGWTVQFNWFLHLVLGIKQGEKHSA

In the case of `Cc1cccc2cc(Cn3nc(-c4ccc5oc(N)nc5c4)c4c(N)ncnc43)nc(N3CCN(C)CC3)c12` [Compound 17], the EC50 in test [1] (setting [5]) was < 100 nM. In addition, the IC50 was < 1000 nM in test [2] (setting [6]), < 100 nM in test [3] and < 100 nM in test [4] (setting [7]).

`CCN1CCC(Oc2nc(Cn3nc(-c4ccc5oc(N)nc5c4)c4c(N)ncnc43)cc3cccc(C)c23)CC1` [Compound 6]: in test [1] (setting [5]), the EC50 is < 100 nM. In addition, the IC50 is < 1000 nM in test [2] (setting [6]), < 100 nM in test [3] and < 100 nM in test [4] (setting [7]).

`Cc1cccc2cc(Cn3nc(-c4cn[nH]c4)c4c(N)ncnc43)nc(OC3CCNCC3)c12` [Compound 9]: the EC50 in test [1] (setting [5]) was < 10000 nM. The results for the IC50 in test [2] (setting [6]), in test [3] and in test [4] (setting [7]) were > 10000 nM, > 10000 nM and < 100 nM, respectively.

Turning to `Cc1cccc2cc(Cn3nc(-c4ccc5nc(N)sc5c4)c4c(N)ncnc43)nc(OC(C)C)c12` [Compound 31], the EC50 in test [1] (setting [5]) was < 1000 nM. Besides, the IC50 in test [2] (setting [6]), in test [3] and in test [4] (setting [7]) was < 100 nM throughout.

On to `Nc1ncnc2c1c(-c1cn[nH]c1)nn2Cc1cc2cccc(Cl)c2c(N2CCOCC2)n1` [Compound 66], for which, in test [1] (setting [5]), the EC50 was < 100 nM. Further, the figures for the IC50 in test [2] (setting [6]), in test [3] and in test [4] (setting [7]) were < 10000 nM, < 1000 nM and < 100 nM, respectively.

Take `Cc1cccc2cc(Cn3nc(-c4cn[nH]c4)c4c(N)ncnc43)nc(OC3CCN(C)CC3)c12` [Compound 3]: the EC50 in test [1] (setting [5]) was < 100 nM. The IC50 was < 10000 nM in test [2] (setting [6]), > 10000 nM in test [3] and < 100 nM in test [4] (setting [7]).

On to `CCN1CCC(Oc2nc(Cn3nc(-c4cn[nH]c4)c4c(N)ncnc43)cc3cccc(Cl)c23)CC1` [Compound 56], for which the EC50 in test [1] (setting [5]) was < 100 nM. Also, the IC50 was > 10000 nM in test [2] (setting [6]), > 10000 nM in test [3] and < 1000 nM in test [4] (setting [7]).

In the case of `CS(=O)(=O)N1CCN(c2nc(Cn3nc(-c4cn[nH]c4)c4c(N)ncnc43)cc3cccc(Cl)c23)CC1` [Compound 67], the EC50 in test [1] (setting [5]) is < 1000 nM. Further, the IC50 in test [2] (setting [6]) was < 10000 nM; in test [3], < 1000 nM; in test [4] (setting [7]), < 100 nM.

For `Cc1cccc2cc([C@H](C)Nc3ncnc4[nH]cnc34)nc(OC3CCN(S(C)(=O)=O)CC3)c12` [Compound 61], the EC50 in test [1] (setting [5]) is < 1000 nM. The IC50 in test [2] (setting [6]) was > 10000 nM; in test [3], < 10000 nM; in test [4] (setting [7]) it was < 1000 nM.

`Cc1cccc2cc(C(C)Nc3ncnc4[nH]cnc34)nc(OC3CCN(C)CC3)c12` (centres unmarked) [Compound 15]: the EC50 in test [1] (read-out: B cell proliferation EC50 (nM)) is < 100 nM. Further, the results for the IC50 in test [2], in test [3] and in test [4] were > 10000 nM, > 10000 nM and < 100 nM, respectively.

`CS(=O)(=O)N1CCC(Oc2nc(Cn3nc(-c4cn[nH]c4)c4c(N)ncnc43)cc3cccc(Cl)c23)CC1` [Compound 58]: the EC50 in test [1] (setting [5]) was < 1000 nM. Also, the IC50 in test [2] (setting [6]) was > 10000 nM; in test [3], > 10000 nM; in test [4] (setting [7]) it was < 1000 nM.

Regarding `CC(Nc1ncnc2[nH]cnc12)c1cc2cccc(Cl)c2c(CN2CCN(S(C)(=O)=O)CC2)n1` (centres unmarked) [Compound 59], in test [1] (setting [5]), the EC50 was < 1000 nM. In addition, the IC50 in test [2] (setting [6]) was > 10000 nM; in test [3] it was > 10000 nM; in test [4] (setting [7]) it was < 1000 nM.

On to `C[C@H](Nc1ncnc2[nH]cnc12)c1cc2cccc(Cl)c2c(N2CCOCC2)n1` [Compound 62], for which the EC50 in test [1] (setting [5]) was < 1000 nM. For the same molecule, the figures for the IC50 in test [2] (setting [6]), in test [3] and in test [4] (setting [7]) were > 10000 nM, < 10000 nM and < 1000 nM, respectively.

In the case of `CC(Nc1ncnc2[nH]cnc12)c1cc2cccc(Cl)c2c(OC2CCN(S(C)(=O)=O)CC2)n1` (centres unmarked) [Compound 54], in test [1] (setting [5]), the EC50 was < 1000 nM. For the same molecule, the IC50 in test [2] (setting [6]) is > 10000 nM; in test [3] it was > 10000 nM; in test [4] (setting [7]), < 1000 nM.

With `CC(Nc1ncnc2[nH]cnc12)c1cc2ccccc2c(OC2CCN(C(C)C)CC2)n1` (centres unmarked) [Compound 35], in test [1] (setting [5]), the EC50 was < 100 nM. In addition, the IC50 is > 10000 nM in test [2] (setting [6]), > 10000 nM in test [3] and < 1000 nM in test [4] (setting [7]).

As for `Cc1cccc2cc(C(C)Nc3ncnc4[nH]cnc34)nc(CCN3CCN(C)CC3)c12` (centres unmarked) [Compound 20], the EC50 in test [1] (setting [5]) was < 100 nM. Moreover, the IC50 in test [2] (setting [6]) is > 10000 nM; in test [3] it was > 10000 nM; in test [4] (setting [7]), < 100 nM.

As for `C[C@H](Nc1ncnc2[nH]cnc12)c1cc2cccc(Cl)c2c(N2CCCC2)n1` [Compound 63], in test [1] (setting [5]), the EC50 was < 1000 nM. Also, the half-inhibitory concentration (IC50) in test [2] (setting [6]) is > 10000 nM; in test [3], < 10000 nM; in test [4] (setting [7]) it was < 100 nM.

As for `Cc1cccc2cc(Cn3nc(-c4ccc5oc(N)nc5c4)c4c(N)ncnc43)nc(CCN3CCN(C)CC3)c12` [Compound 25], the EC50 in test [1] (setting [5]) was < 100 nM. Also, the concentration for half-maximal inhibition (IC50) in test [2] (setting [6]) was < 1000 nM; in test [3] it was < 1000 nM; in test [4] (setting [7]), < 100 nM.

Consider `Nc1ncnc2c1c(-c1cn[nH]c1)nn2Cc1cc2cccc(Cl)c2c(N2CCCC2)n1` [Compound 68], for which the EC50 in test [1] (setting [5]) is < 1000 nM. Further, the values for the IC50 in test [2] (setting [6]), in test [3] and in test [4] (setting [7]) were < 10000 nM, < 1000 nM and < 100 nM, respectively.

Consider `Nc1nc2cc(-c3nn(Cc4cc5ccccc5c(N5CCCC5)n4)c4ncnc(N)c34)ccc2o1` [Compound 1], for which the EC50 in test [1] (setting [5]) is < 1000 nM. Further, the IC50 in test [2] (setting [6]) is < 1000 nM; in test [3], < 100 nM; in test [4] (setting [7]) it was < 100 nM.

For the molecule `CCN1CCC(Oc2nc(C(C)Nc3ncnc4[nH]cnc34)cc3cccc(C)c23)CC1` (centres unmarked) [Compound 16], the EC50 in test [1] (setting [5]) is < 100 nM. Also, the IC50 is > 10000 nM in test [2] (setting [6]), > 10000 nM in test [3] and < 100 nM in test [4] (setting [7]).

Regarding `C[C@H](Nc1ncnc2[nH]cnc12)c1cc2cccc(Cl)c2c(OC2CCN(S(C)(=O)=O)CC2)n1` [Compound 60], the EC50 in test [1] (setting [5]) is < 1000 nM. Besides, the results for the IC50 in test [2] (setting [6]), in test [3] and in test [4] (setting [7]) were > 10000 nM, < 10000 nM and < 1000 nM, respectively.

As to `CN1CCC(Oc2nc(Cn3nc(-c4cn[nH]c4)c4c(N)ncnc43)cc3cccc(Cl)c23)CC1` [Compound 55], the EC50 in test [1] (setting [5]) is < 100 nM. Besides, the IC50 is > 10000 nM in test [2] (setting [6]), > 10000 nM in test [3] and < 100 nM in test [4] (setting [7]).
